Source: the NIST ThermoML archive (doi:10.1016/j.jct.2005.04.015)
± gives the expanded uncertainty stated by the source.

Test: excess molar enthalpy (molar enthalpy of mixing); xn = mol fraction of the nth substance listed
Details: Liquid, Flow calorimetry

CCOC=O [ethyl methanoate] + CC(C)O
Details | excess molar enthalpy [kcal/mol]
298.15 K, 5000 kPa, x1 = 0.0498 | 0.0806 ± 0.00177
298.15 K, 5000 kPa, x1 = 0.0993 | 0.158 ± 0.00335
298.15 K, 5000 kPa, x1 = 0.1485 | 0.221 ± 0.00478
298.15 K, 5000 kPa, x1 = 0.2008 | 0.276 ± 0.00598
298.15 K, 5000 kPa, x1 = 0.2493 | 0.317 ± 0.00669
298.15 K, 5000 kPa, x1 = 0.3009 | 0.35 ± 0.00741
298.15 K, 5000 kPa, x1 = 0.3488 | 0.373 ± 0.00789
298.15 K, 5000 kPa, x1 = 0.3997 | 0.391 ± 0.00837
298.15 K, 5000 kPa, x1 = 0.4503 | 0.4 ± 0.0086
298.15 K, 5000 kPa, x1 = 0.5005 | 0.403 ± 0.0086
298.15 K, 5000 kPa, x1 = 0.5504 | 0.398 ± 0.0086
298.15 K, 5000 kPa, x1 = 0.5999 | 0.389 ± 0.00837
298.15 K, 5000 kPa, x1 = 0.6492 | 0.372 ± 0.00789
298.15 K, 5000 kPa, x1 = 0.7013 | 0.344 ± 0.00741
298.15 K, 5000 kPa, x1 = 0.7498 | 0.311 ± 0.00669
298.15 K, 5000 kPa, x1 = 0.8012 | 0.267 ± 0.00574
298.15 K, 5000 kPa, x1 = 0.8997 | 0.156 ± 0.00335
298.15 K, 5000 kPa, x1 = 0.95 | 0.0857 ± 0.00189
298.15 K, 10000 kPa, x1 = 0.0497 | 0.0741 ± 0.00163
298.15 K, 10000 kPa, x1 = 0.099 | 0.152 ± 0.00335
298.15 K, 10000 kPa, x1 = 0.1516 | 0.218 ± 0.00478
298.15 K, 10000 kPa, x1 = 0.2003 | 0.271 ± 0.00574
298.15 K, 10000 kPa, x1 = 0.2487 | 0.311 ± 0.00669
298.15 K, 10000 kPa, x1 = 0.3002 | 0.345 ± 0.00741
298.15 K, 10000 kPa, x1 = 0.3514 | 0.368 ± 0.00789
298.15 K, 10000 kPa, x1 = 0.3989 | 0.383 ± 0.00813
298.15 K, 10000 kPa, x1 = 0.4495 | 0.393 ± 0.00837
298.15 K, 10000 kPa, x1 = 0.4997 | 0.396 ± 0.00837
298.15 K, 10000 kPa, x1 = 0.5496 | 0.393 ± 0.00837
298.15 K, 10000 kPa, x1 = 0.5991 | 0.384 ± 0.00813
298.15 K, 10000 kPa, x1 = 0.6484 | 0.368 ± 0.00789
298.15 K, 10000 kPa, x1 = 0.7006 | 0.34 ± 0.00717
298.15 K, 10000 kPa, x1 = 0.7492 | 0.31 ± 0.00669
298.15 K, 10000 kPa, x1 = 0.8006 | 0.265 ± 0.00574
298.15 K, 10000 kPa, x1 = 0.8994 | 0.157 ± 0.00335
298.15 K, 10000 kPa, x1 = 0.9499 | 0.0864 ± 0.00189
308.15 K, 10000 kPa, x1 = 0.0487 | 0.0511 ± 0.00115
308.15 K, 10000 kPa, x1 = 0.1 | 0.139 ± 0.00311
308.15 K, 10000 kPa, x1 = 0.1511 | 0.211 ± 0.00454
308.15 K, 10000 kPa, x1 = 0.1988 | 0.267 ± 0.00574
308.15 K, 10000 kPa, x1 = 0.2492 | 0.313 ± 0.00669
308.15 K, 10000 kPa, x1 = 0.2993 | 0.351 ± 0.00741
308.15 K, 10000 kPa, x1 = 0.349 | 0.378 ± 0.00813
308.15 K, 10000 kPa, x1 = 0.4013 | 0.398 ± 0.0086
308.15 K, 10000 kPa, x1 = 0.4504 | 0.409 ± 0.00884
308.15 K, 10000 kPa, x1 = 0.4992 | 0.413 ± 0.00884
308.15 K, 10000 kPa, x1 = 0.5505 | 0.409 ± 0.00884
308.15 K, 10000 kPa, x1 = 0.5987 | 0.399 ± 0.0086
308.15 K, 10000 kPa, x1 = 0.6996 | 0.353 ± 0.00765
308.15 K, 10000 kPa, x1 = 0.7496 | 0.319 ± 0.00693
308.15 K, 10000 kPa, x1 = 0.7993 | 0.278 ± 0.00598
308.15 K, 10000 kPa, x1 = 0.8513 | 0.226 ± 0.00478
308.15 K, 10000 kPa, x1 = 0.9003 | 0.163 ± 0.00359
308.15 K, 10000 kPa, x1 = 0.949 | 0.0911 ± 0.00198

CCOC=O [ethyl methanoate] + CCC(C)O
excess molar enthalpy [kcal/mol]
Details | 298.15 K | 308.15 K
5000 kPa, x1 = 0.1504 | 0.234 ± 0.00502 | –
5000 kPa, x1 = 0.1997 | 0.29 ± 0.00621 | –
5000 kPa, x1 = 0.2497 | 0.336 ± 0.00717 | –
5000 kPa, x1 = 0.3005 | 0.373 ± 0.00789 | –
5000 kPa, x1 = 0.3501 | 0.4 ± 0.0086 | –
5000 kPa, x1 = 0.4005 | 0.418 ± 0.00884 | –
5000 kPa, x1 = 0.4497 | 0.429 ± 0.00908 | –
5000 kPa, x1 = 0.4996 | 0.432 ± 0.00932 | –
5000 kPa, x1 = 0.5502 | 0.427 ± 0.00908 | –
5000 kPa, x1 = 0.5995 | 0.414 ± 0.00884 | –
5000 kPa, x1 = 0.6496 | 0.394 ± 0.00837 | –
5000 kPa, x1 = 0.7003 | 0.365 ± 0.00789 | –
5000 kPa, x1 = 0.7496 | 0.328 ± 0.00693 | –
5000 kPa, x1 = 0.7996 | 0.284 ± 0.00598 | –
5000 kPa, x1 = 0.8996 | 0.156 ± 0.00335 | –
5000 kPa, x1 = 0.9494 | 0.0812 ± 0.00179 | –
10000 kPa, x1 = 0.0492 | 0.0843 ± 0.00184 | –
10000 kPa, x1 = 0.0496 | – | 0.101 ± 0.0022
10000 kPa, x1 = 0.0992 | 0.17 ± 0.00359 | –
10000 kPa, x1 = 0.1 | – | 0.197 ± 0.0043
10000 kPa, x1 = 0.15 | 0.243 ± 0.00526 | –
10000 kPa, x1 = 0.1513 | – | 0.276 ± 0.00598
10000 kPa, x1 = 0.1985 | 0.3 ± 0.00645 | –
10000 kPa, x1 = 0.2007 | – | 0.337 ± 0.00717
10000 kPa, x1 = 0.2509 | 0.348 ± 0.00741 | 0.386 ± 0.00837
10000 kPa, x1 = 0.2992 | – | 0.422 ± 0.00908
10000 kPa, x1 = 0.301 | 0.383 ± 0.00813 | –
10000 kPa, x1 = 0.3487 | 0.407 ± 0.0086 | –
10000 kPa, x1 = 0.351 | – | 0.451 ± 0.00956
10000 kPa, x1 = 0.4004 | 0.425 ± 0.00908 | –
10000 kPa, x1 = 0.4008 | – | 0.47 ± 0.01
10000 kPa, x1 = 0.4495 | 0.436 ± 0.00932 | –
10000 kPa, x1 = 0.4514 | – | 0.479 ± 0.0103
10000 kPa, x1 = 0.4994 | 0.439 ± 0.00932 | –
10000 kPa, x1 = 0.4999 | – | 0.481 ± 0.0103
10000 kPa, x1 = 0.5491 | – | 0.475 ± 0.01
10000 kPa, x1 = 0.5501 | 0.433 ± 0.00932 | –
10000 kPa, x1 = 0.599 | – | 0.46 ± 0.0098
10000 kPa, x1 = 0.6015 | 0.42 ± 0.00908 | –
10000 kPa, x1 = 0.6497 | – | 0.436 ± 0.00932
10000 kPa, x1 = 0.6502 | 0.402 ± 0.0086 | –
10000 kPa, x1 = 0.6996 | 0.373 ± 0.00789 | –
10000 kPa, x1 = 0.7011 | – | 0.405 ± 0.0086
10000 kPa, x1 = 0.7497 | 0.331 ± 0.00717 | –
10000 kPa, x1 = 0.7502 | – | 0.363 ± 0.00789
10000 kPa, x1 = 0.8 | – | 0.314 ± 0.00669
10000 kPa, x1 = 0.8006 | 0.284 ± 0.00598 | –
10000 kPa, x1 = 0.8485 | 0.223 ± 0.00478 | –
10000 kPa, x1 = 0.8506 | – | 0.255 ± 0.0055
10000 kPa, x1 = 0.8986 | – | 0.185 ± 0.00406
10000 kPa, x1 = 0.9008 | 0.154 ± 0.00335 | –
10000 kPa, x1 = 0.95 | 0.0895 ± 0.00196 | –
10000 kPa, x1 = 0.9506 | – | 0.0966 ± 0.0021

CCOC=O [ethyl methanoate] + CCCCCO
298.15 K
Details | excess molar enthalpy [kcal/mol]
5000 kPa, x1 = 0.0502 | 0.0619 ± 0.00139
5000 kPa, x1 = 0.0995 | 0.145 ± 0.00311
5000 kPa, x1 = 0.1505 | 0.22 ± 0.00478
5000 kPa, x1 = 0.2006 | 0.279 ± 0.00598
5000 kPa, x1 = 0.2494 | 0.324 ± 0.00693
5000 kPa, x1 = 0.2998 | 0.361 ± 0.00765
5000 kPa, x1 = 0.3487 | 0.388 ± 0.00837
5000 kPa, x1 = 0.3992 | 0.404 ± 0.0086
5000 kPa, x1 = 0.4514 | 0.409 ± 0.0086
5000 kPa, x1 = 0.4984 | 0.41 ± 0.00884
5000 kPa, x1 = 0.5503 | 0.406 ± 0.0086
5000 kPa, x1 = 0.6002 | 0.392 ± 0.00837
5000 kPa, x1 = 0.6516 | 0.372 ± 0.00789
5000 kPa, x1 = 0.7007 | 0.346 ± 0.00741
5000 kPa, x1 = 0.7513 | 0.312 ± 0.00669
5000 kPa, x1 = 0.7992 | 0.269 ± 0.00574
5000 kPa, x1 = 0.8484 | 0.215 ± 0.00454
5000 kPa, x1 = 0.899 | 0.151 ± 0.00335
5000 kPa, x1 = 0.951 | 0.0755 ± 0.00167
10000 kPa, x1 = 0.05 | 0.0947 ± 0.00208
10000 kPa, x1 = 0.0992 | 0.177 ± 0.00382
10000 kPa, x1 = 0.1501 | 0.247 ± 0.00526
10000 kPa, x1 = 0.2 | 0.303 ± 0.00645
10000 kPa, x1 = 0.2487 | 0.345 ± 0.00741
10000 kPa, x1 = 0.2991 | 0.376 ± 0.00813
10000 kPa, x1 = 0.3511 | 0.403 ± 0.0086
10000 kPa, x1 = 0.3984 | 0.418 ± 0.00884
10000 kPa, x1 = 0.4505 | 0.426 ± 0.00908
10000 kPa, x1 = 0.501 | 0.426 ± 0.00908
10000 kPa, x1 = 0.5495 | 0.419 ± 0.00884
10000 kPa, x1 = 0.5994 | 0.406 ± 0.0086
10000 kPa, x1 = 0.6508 | 0.382 ± 0.00813
10000 kPa, x1 = 0.7 | 0.353 ± 0.00765
10000 kPa, x1 = 0.7506 | 0.311 ± 0.00669
10000 kPa, x1 = 0.7987 | 0.268 ± 0.00574
10000 kPa, x1 = 0.848 | 0.217 ± 0.00454
10000 kPa, x1 = 0.8987 | 0.154 ± 0.00335
10000 kPa, x1 = 0.9509 | 0.0804 ± 0.00177
